In patent publication US8410126B2, “Pyrimidine inhibitors of PKTK2” (Boehringer Ingelheim International GmbH, priority 2009, dated 2013) one finds IC50 data, which are given here for 7 compounds.

This experiment has as its target T1, PTK2 (Homo sapiens, UniProt Q05397).
T1 construct: purchased Invitrogen PV3832
Kind of experiment: PTK2 enzyme test Assay 2 (DELFIA, poly-Glu-Tyr substrate, PT66 antibody). The experiment is classed as biochemical. The note with it: Assay 2 (values marked *); 1 h pre-incubation, 50 μM ATP mix, final DMSO 0.5%. From the text:
This test uses active PTK2 enzyme (Invitrogen Code PV3832) and poly-Glu-Tyr (4:1, Sigma P-0275) as the kinase substrate. The kinase activity is detected by means of the phosphorylation of the substrate in a DELFIA™ assay. The phosphorylated substrate is detected with the europium-labelled phosphotyrosine antibody PT66 (Perkin Elmer, No.: AD0040).
In order to determine concentration-activity curves with PTK2-inhibitors the compounds are serially diluted first of all in 100% DMSO and then in kinase dilution buffer (20 mM TRIS/HCl pH 7.5, 0.1 mM EDTA, 0.1 mM EGTA, 0.286 mM sodium orthovanadate, 10% glycerol with the addition of freshly prepared BSA (fraction V, 1 mg/mL) and DTT (1 mM)) and 10 μL of each dilution are dispensed per well in a 96-well microtitre plate (clear U-shaped base plate, Greiner No. 650101) (the inhibitors are tested in duplicates) and mixed with 10 μL/well of PTK2 kinase (0.01 μg/well). PTK2 kinase is diluted accordingly beforehand with kinase dilution buffer. The diluted PTK2 inhibitor and the PTK2 kinase are pre-incubated for 1 h at RT and shaken at 500 revolutions per min. Then 10 μL/well poly-Glu-Tyr substrate (25 μg/well poly-Glu-Tyr, 0.05 μg/well biotinylated poly-Glu-Tyr dissolved in 250 mM TRIS/HCl pH 7.5, 9 mM DTT) are added. The reaction is started by the addition of 20 μL of ATP Mix (30 mM TRIS/HCl pH 7.5, 0.02% Brij, 0.2 mM sodium orthovanadate, 10 mM magnesium acetate, 0.1 mM EGTA, 1× phosphatase inhibitor cocktail 1 (Sigma, No.: P2850), 50 μM ATP (Sigma, No.: A3377; 15 mM stock solution))—the final concentration of DMSO is 0.5%. After 1 h kinase reaction (the plates are shaken at 500 rpm), the reaction is stopped by the addition of 12 μL/well of 100 mM EDTA, pH 8, and shaken for a further 5 min at RT (500 U/min). 55 μL of the reaction mixture are transferred into a streptavidin plate (Strepta Well High Bind (transparent, 96-well) made by Roche, No.: 11989685001) and incubated for 1 h at RT (shaking at 500 rpm). Then the microtitre plate is washed five times with 200 μL/well D-PBS (Invitrogen, No. 14190). 100 μL of a solution containing DELFIA Eu-N1 Anti-Phosphotyrosine PT66 antibody (Perkin Elmer, No.: AD0040, diluted 1:9000 in DELFIA test buffer (Perkin Elmer, No.: 1244-111)) is then added and it is incubated for 1 h at RT (shaking at 500 rpm). Then the plate is washed five times with 200 μL/well DELFIA washing buffer (Perkin Elmer, No.: 1244-114), 200 μL/well strengthening solution (Perkin Elmer, No.: 1244-105) is added and the whole is incubated for 10 min at RT (shaking at 300 rpm).
The time-delayed europium fluorescence is then measured in a microtitre plate reader (VICTOR^3, Perkin Elmer). The positive control consists of wells that contain solvent (0.5% DMSO in test buffer) and display uninhibited kinase activity. Wells that contain test buffer instead of enzyme act as a control for the background kinase activity.
The IC50 values are determined from concentration-activity analyses by iterative calculation using a sigmoid curve analysis algorithm (FIFTY, based on GraphPAD Prism Version 3.03) with a variable Hill coefficient.

T1 sequence (Q05397 whole entry): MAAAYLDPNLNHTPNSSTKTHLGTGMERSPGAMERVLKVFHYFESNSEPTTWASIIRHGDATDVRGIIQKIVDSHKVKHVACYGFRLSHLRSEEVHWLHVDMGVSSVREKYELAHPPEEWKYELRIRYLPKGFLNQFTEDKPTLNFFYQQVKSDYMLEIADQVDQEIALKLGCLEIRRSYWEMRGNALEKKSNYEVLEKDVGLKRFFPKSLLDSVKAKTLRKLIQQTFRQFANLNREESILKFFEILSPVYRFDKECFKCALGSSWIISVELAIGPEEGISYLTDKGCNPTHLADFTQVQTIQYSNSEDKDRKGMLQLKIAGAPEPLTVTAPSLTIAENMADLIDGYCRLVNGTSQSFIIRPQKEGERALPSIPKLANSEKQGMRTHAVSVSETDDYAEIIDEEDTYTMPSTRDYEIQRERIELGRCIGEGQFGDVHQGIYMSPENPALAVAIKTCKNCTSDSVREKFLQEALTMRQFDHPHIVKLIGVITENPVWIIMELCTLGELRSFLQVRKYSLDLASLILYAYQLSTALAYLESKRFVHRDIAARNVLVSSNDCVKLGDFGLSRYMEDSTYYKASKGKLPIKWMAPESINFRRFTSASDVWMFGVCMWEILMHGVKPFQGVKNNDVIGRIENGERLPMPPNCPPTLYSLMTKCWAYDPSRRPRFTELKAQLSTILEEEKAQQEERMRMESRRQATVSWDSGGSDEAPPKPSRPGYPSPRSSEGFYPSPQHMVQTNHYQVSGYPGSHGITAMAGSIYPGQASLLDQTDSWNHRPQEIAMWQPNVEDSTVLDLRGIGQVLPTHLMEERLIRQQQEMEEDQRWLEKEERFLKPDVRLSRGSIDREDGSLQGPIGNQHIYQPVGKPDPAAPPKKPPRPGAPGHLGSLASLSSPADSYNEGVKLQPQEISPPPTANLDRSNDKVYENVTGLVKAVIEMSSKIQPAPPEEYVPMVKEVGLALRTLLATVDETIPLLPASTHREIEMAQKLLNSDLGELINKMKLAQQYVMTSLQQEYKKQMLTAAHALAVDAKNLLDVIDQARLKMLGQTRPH

With `COc1cc(N2CCN(C)CC2=O)ccc1Nc1ncc(C(F)(F)F)c(N[C@@H]2Cc3ccccc3[C@H]2N(C)S(C)(=O)=O)n1` [Example I-86], the IC50 (commonly the point on the concentration scale where inhibition reaches its midpoint) amounted to 0.31 nM.

For the compound `COc1cc(N2CCNCC2=O)ccc1Nc1ncc(C(F)(F)F)c(N[C@@H]2Cc3ccccc3[C@H]2N(C)S(C)(=O)=O)n1` [Example I-87], 0.48 nM corresponded to half-maximal inhibition (IC50).

Compound `CN1CCC(NC(=O)c2cccc(Nc3ncc(C(F)(F)F)c(N[C@@H]4Cc5ccccc5[C@H]4N(C)S(C)(=O)=O)n3)c2)CC1` [Example I-88] showed an IC50 of 0.26 nM.

`CCc1cc(Nc2ncc(C(F)(F)F)c(N[C@@H]3Cc4ccccc4[C@H]3N(C)S(C)(=O)=O)n2)c(OC)cc1N1CCN(C(C)(C)C)CC1` [Example I-89] had an IC50 of 0.68 nM.

In turn, `COc1cc(N2CCN(C(C)(C)C)CC2)ccc1Nc1ncc(C(F)(F)F)c(N[C@@H]2Cc3ccccc3[C@H]2NS(C)(=O)=O)n1` [Example I-91] came in with an IC50 of 0.75 nM.

The compound `COc1ccc(C(=O)NC2CCN(C)CC2)cc1Nc1ncc(Cl)c(N[C@@H]2Cc3ccccc3[C@H]2N(C)S(C)(=O)=O)n1` [Example I-93] had an IC50 of 0.6 nM.

Regarding `COc1cc(C(=O)NCCN(C)C)ccc1Nc1ncc(C(F)(F)F)c(N[C@@H]2CCc3ccccc3[C@H]2N(C)S(C)(=O)=O)n1` [Example I-94], the concentration for half-maximal inhibition (IC50) was found to be 16 nM.
